Results on 3 compounds are retold here after patent US20100281567A1, “TRANSGENIC PLANTS HAVING ALTERED LEVELS OF AROMATIC AMINO ACIDS AND METABOLITES DERIVED THEREFROM” (priority 2007, published 2010).

Holding throughout (assay type): in vivo, Arabidopsis thaliana
In test [1] the test system is Arabidopsis plants. The test is described as follows: Sensitivity of germination to external application of phenylalanine. As to conditions: PheA* genotypes compared to control genotype; 4 mM phenylalanine in medium. As for the experimental part: FIG. 11A: Morphological phenotype of the control genotype (a, e) and the PheA* expressing genotypes p5 (b, f), p9 (c, g) and p17 (d, h). Plants were at the age of 10 days (a-d) and two months (e-f). FIG. 11B: Seeds of the above control and transgenic plants were germinated on media lacking (left) or containing (right) 4 mM Phe.
Amino acids are generally toxic to plants when added externally at relatively high concentrations. We therefore also used this trait to further confirm that the PheA* plants overproduce phenylalanine, by testing for sensitivity to external application of phenylalanine.

The subject of test [2] is Arabidopsis plants. As to the kind of experiment: Effect of the HPPD inhibitor Isoxaflutole on growth of control and transgenic Arabidopsis plants. Particulars: 10 ppb Isoxaflutole in MS medium. As for the experimental part:
Plants were grown on MS medium in the presence of 10 ppb Isoxaflutole. […] FIG. 9A: Chlorophyll content. FIG. 9B: Photograph of the plants.
Western blot analysis was performed with anti-HA tag antibodies, in order to identify the mutated plants which are translated the chemeric gene (Stepansky A and Galili G 2003 Plant Physiol 133, 1407-1415). Additionally, T2 generation plants were examined and lines with a single insertion gene were selected based on 3:1 genetic segregation. For testing the growth of the transgenic plants producing elevated concentrations of the compounds of the invention, homozygous PheA* plants were germinated on regular Nitch medium. The 4-Hydroxy-phenylpyruvate dioxygenase (HPPD) inhibitor Isoxaflutole was used as previously described (Rippert P et al. 2004 Plant Physiol., 134:92-100).
Tyrosine is catabolized in plants to a number of metabolites including hydroxyl-phenylpyruvate (p-HPP), homogentistic acid (HGA) and tocopherols. One of the enzymes in the Tyr catabolism pathways is 4-Hydroxy-phenylpyruvate dioxygenase (HPPD), which catalyzes the conversion of p-HPP to HGA. HGA is derived exclusively from the catabolism of tyrosine and is also a substrate for a number of other metabolites, such as tocopherols. […]

Test [3] concerns Arabidopsis plants. As to the kind of experiment: Effect of the tryptophan analog 5-methyl tryptophan on growth of transgenic plants. Particulars: plants p17, p9 and p5 expressing 35S:PRO-TP-PheA*-3HA; 100 μM, three weeks. As for the experimental part:
FIG. 10 illustrates the effect of tryptophan analog on transgenic plants expressing: (i) the 35S:PRO-TP-PheA*-3HA gene (p5, p9; p17); (ii) dominant mutation, resistant to tryptophan analogs due to high levels of tryptophan (5× normal) and anthranilate synthase (2× normal), amt1-1; (iii) control plants expressing an empty Ti vector (con); and (iv) wild type Arabidopsis Colombia ecotype (col). FIG. 10A: Photograph of plants growing for three weeks on zero and 100 μM 5-methyl tryptophan (5MT). FIG. 10B: Quantitative analysis of the number of seedlings whose growth was arrested by 5MT.
To evaluate the biosynthesis level of tryptophan, the effects of tryptophan analog on the transgenic plants of the present invention and on positive-control and control plants were examined. Plants used were as follows: i) plants of the present invention transformed with the 35S:PRO-TP-PheA*-3HA construct; (ii) positive-control transgenic plants having the dominant mutation amt1-1, which are resistant to tryptophan analogs due to high levels of tryptophan (5× normal) and anthranilate synthase (2× normal), the first enzyme of tryptophan biosynthesis; (iii) control plants expressing an empty Ti vector; and (iv) wild type Arabidopsis Colombia ecotype (col). Plants were grown for three weeks on zero and 100 μM 5-methyl tryptophan (5MT).

For `N[C@@H](Cc1ccccc1)C(=O)O` [phenylalanine], the germination entry in the test with Arabidopsis plants [1] is reported as “significantly inhibited”.
On to `CS(=O)(=O)c1cc(C(F)(F)F)ccc1C(=O)c1cnoc1C1CC1` [Isoxaflutole], for which the chlorotic symptoms entry is on record as “developed chlorotic symptoms” with Arabidopsis plants [2] (control plants expressing an empty Ti plasmid) and “remained green” in the test with Arabidopsis plants [2] (transgenic plants expressing 35S:PRO-TP-PheA*-3HA).
`Cc1ccc2[nH]cc(C[C@H](N)C(=O)O)c2c1` [5MT, 5-methyl tryptophan]: the growth of plants entry with Arabidopsis plants [3] is reported as “strongly inhibited”.
